Measured values as given in US20250276036A1, “COMPOSITION FOR THE INHIBITION OF NRF2 AND USES THEREOF IN CANCER THERAPY” (Sunshine Biopharma Inc., priority 2022, published 2025).

Experiments:
[1] = test system: MCF7 human breast adenocarcinoma cell line; assay: Cell viability (CellTiter-Glo) after mRNA transfection, MCF7; format: cell-based
Protocol: (§1) The goal of these experiments is to evaluate the transfectability of various cell lines, as well as evaluate the role of KEAP1 as a tumor cells sensitizer, evaluate its role in decreasing the viability of tumor cells. The synthetic mRNA produced in Example 1, or the cLUC mRNA are transfected in cancer cells using the Lipofectamine MessengerMAX™ Transfection Reagent, ThermoFisher™, Cat No: LMRNA001. 0, 0.3, 1, 3 or 9 ng of either mRNA is used per 1000 cells.
(§2) MCF7 and MCF7/MDR human breast adenocarcinoma cell lines are transfected for 48 hours with 0, 0.3, 1, 3 and 9 ng of KEAP1 mRNA, or with 0, 0.3, 1, 3 and 9 ng of a control Cypridina luciferase (cLUC) (SEQ ID NO: 10) mRNA. The cells viability was measured using the CellTiter-Glo® assay from Promega®. KEAP1 mRNA specific effects on MCF7 and MCF7/MDR cells survival were observed when cells were transfected with 0, 0.3, 1, 3 and 9 ng of KEAP1 mRNA.
(§3) MCF7 and MCF7/MDR human breast adenocarcinoma cell lines are transfected for 48 hours with 0, 1 and 3 ng of KEAP1 mRNA, or with 0, 1 and 3 ng of a control Cypridina luciferase (cLUC) mRNA, per 1000 cells. The cells viability was measured using the CellTiter-Glo® assay from Promega®. In-cell Western analysis is used to detect the presence of KEAP1.
(§4) Human Mammary Epithelial Cells (HMEC), which are non-cancer cells were compared to MCF7 cancer cells. The HMEC cells and MCF7 cancer cells were transfected for 48 hours with 0, 0.3, 1, 3 and 9 ng of KEAP1 mRNA, or a control cLUC mRNA, per 1000 cells and their respective survival were compared. The cells viability was measured using the CellTiter-Glo® assay from Promega®. […] Now referring to FIG. 4, cell viability of MCF7 cells was affected by KEAP1 mRNA, but the viability of the HMEC cells was unaffected by KEAP1 mRNA.

[2] = test system: Human Mammary Epithelial Cells (HMEC); assay: Cell viability (CellTiter-Glo) after mRNA transfection, HMEC; format: cell-based; conditions: HMEC, 0, 3 and 9 ng mRNA per 1000 cells, 48 hours transfection
Protocol: (§5) The synthetic mRNA produced in Example 1 is transfected in cancer cells using the Lipofectamine MessengerMAX™ Transfection Reagent.
as §4

[3] = test system: OVCAR3 epithelial cells; assay: Cell viability (CellTiter-Glo) after mRNA transfection, OVCAR3; format: cell-based, human
Protocol: as §5
(§6) OVCAR3 epithelial cells isolated from malignant ascites of a patient with progressive adenocarcinoma of the ovary, and SUIT2 human pancreatic cancer cell lines are transfected for […] with 0, 0.3, 1, 3 and 9 ng of KEAP1 mRNA, or with 0, 0.3, 1, 3 and 9 ng of a control Cypridina luciferase (cLUC)(SEQ ID NO: 10) mRNA, per 1000 cells. The cells viability was measured using the CellTiter-Glo® assay from Promega®. In-cell Western analysis is used to detect the presence of KEAP1.

[4] = test system: SUIT2 human pancreatic cancer cell line; assay: Cell viability (CellTiter-Glo) after mRNA transfection, SUIT2; format: cell-based; conditions: SUIT2, 0, 3 and 9 ng mRNA per 1000 cells
Protocol: as §5, §6

[5] = test system: MCF7/MDR human breast adenocarcinoma cell line; assay: Cell viability (CellTiter-Glo) after mRNA transfection, MCF7/MDR; format: cell-based; conditions: for % Cell survival: MCF7/MDR, 48 hours transfection (Example 3)
Protocol: as §1, §2, §3

cLUC mRNA: control Cypridina luciferase (cLUC) (SEQ ID NO: 10) mRNA
effect on cell survival / viability ([1]; MCF7, 0, 0.3, 1, 3 and 9 ng mRNA per 1000 cells, 48 hours (FIG. 2)): little effect on cell survival unless a large amount of 9 ng was transfected
% Cell survival ([1]; MCF7, 1 ng mRNA per 1000 cells, 48 hours transfection (Example 3)): 100%
% Cell survival ([1]; MCF7, 3 ng mRNA per 1000 cells, 48 hours transfection (Example 3)): 55%
% Cell survival ([1]; MCF7, 3 ng mRNA per 1000 cells, 48 hours transfection (Example 4, Table 2)): 100%
% Cell survival ([1]; MCF7, 9 ng mRNA per 1000 cells, 48 hours transfection (Example 4, Table 2)): 55%
% Cell survival [2]: Resistant
% Cell survival ([3]; OVCAR3, 3 ng mRNA per 1000 cells): 90%
% Cell survival ([3]; OVCAR3, 9 ng mRNA per 1000 cells): 80%
% Cell survival [4]: Resistant
effect on cell survival / viability ([5]; MCF7/MDR, 0, 0.3, 1, 3 and 9 ng mRNA per 1000 cells, 48 hours (FIG. 2)): little effect on cell survival unless a large amount of 9 ng was transfected
% Cell survival ([5]; 1 ng mRNA per 1000 cells): 100%
% Cell survival ([5]; 3 ng mRNA per 1000 cells): 55%
